# Data as given in patent publication US12546786B2, “Circulatory biomarkers for placental or fetal health” (THE UNIVERSITY OF MELBOURNE, priority 2018, dated 2026).
# Tested on: HTR8 cells
# Assay: HTR8 placental cell line proliferation monitored in real time using the xCELLigence system
# Format: cell-based
# Conditions: 5 or 10 uM of SRI31215 administered to HTR8 placental cell line
# Protocol: FIGS. 3A through P are graphical representations showing observational studies to determine whether placental SPINT1 is altered in cases of human SGA. To do this, a cohort of placentas was selected from either control, preeclamptic or SGA pregnancies. […] No change in SPINT1 mRNA expression was detected in placentas collected from patients who delivered at >34 weeks gestation (B). SPINT1 protein expression was assessed using Western blot and commercially available antibodies (C,D). […] Growth restriction is often associated with placental insufficiency and poor oxygen delivery to the placenta, resulting in placental hypoxia. The inventors assessed whether exposure of primary placental cells (cytotrophoblast cells isolated from term human placentas) to low oxygen conditions (1% Oxygen for hypoxia vs 8% oxygen for normoxia) would alter SPINT1 mRNA and protein expression and protein secretion. […] Given previous evidence in mice that a lack of SPINT1 may be associated with a poorly developed placenta, the inventors next set out to assess whether silencing SPINT1 using siRNA knockdown in the HTR8 placental cell line would affect cellular proliferation assessed in real time using the xCELLigence system. […] To do this, a commercially available SPINT1 mimetic called SRI31215 (Glixx laboratories) was administered to HTR8 cells and their proliferation monitored using the xCELLigence system. […]
smiles,measurement,value
CC1CN(CC2CCN(Cc3ccccc3)CC2)C(=O)N(c2cccc(C(=N)N)c2)C1.O=C(O)C(F)(F)F (stereo not shown) [SRI31215],HTR8 proliferation,enhanced HTR8 proliferation
